The values that follow come from publication PMC8359310 (British Journal of Clinical Pharmacology, 2020).

A short description of series [1]: Clinical DDI study: plasma pharmacokinetics of probe drugs. Particulars: for increase of AUCinf on coadministration of capmatinib / increase of AUClast on coadministration of capmatinib / increase of Cmax on coadministration of capmatinib: compared to probe drug alone; for AUC(0-inf) / AUC(0-t) / Cmax / half-life / Tmax: human, in vivo; for AUC(0-inf): AUCinf; for AUC(0-t): AUClast; for half-life: T1/2, geo‐mean (geo‐CV%); for Tmax: median (min, max); for AUCinf geo‐mean ratio (90% CI) / AUClast geo‐mean ratio (90% CI) / Cmax geo‐mean ratio (90% CI): probe drug + capmatinib vs probe drug alone.

For series [2] the following is noted: cited from earlier work.
The mark [3] stands for this setting: adjusted geo‐mean, probe drug + capmatinib, linear mixed effects model.
The mark [4] stands for this setting: adjusted geo‐mean, probe drug alone, linear mixed effects model.
The mark [5] stands for this setting: geo‐mean (geo‐CV%), probe drug + capmatinib 400 mg twice daily, Day 22, plasma.
Where [6] appears, read: geo‐mean (geo‐CV%), probe drug alone, Day 1, plasma.
Where [7] appears, read: probe drug + capmatinib 400 mg twice daily, Day 22.

By half-life is commonly meant how long it takes for the measured level to halve. The Tmax is the time at which the peak concentration occurs. `C[C@H]1O[C@@H](O[C@H]2[C@@H](O)C[C@H](O[C@H]3[C@@H](O)C[C@H](O[C@H]4CC[C@@]5(C)[C@H](CC[C@@H]6[C@@H]5C[C@@H](O)[C@]5(C)[C@@H](C7=CC(=O)OC7)CC[C@]65O)C4)O[C@@H]3C)O[C@@H]2C)C[C@H](O)[C@@H]1O` [digoxin]: in series [1], the “increase of AUCinf on coadministration of capmatinib” value is reported as 47%, the “increase of AUClast on coadministration of capmatinib” value stood at 63% and the “increase of Cmax on coadministration of capmatinib” value was 74%. In series [1] (setting [3]), the AUC(0-inf) was found to be 32.9 ng·h/mL and the AUC(0-t) amounted to 23.8 ng·h/mL. In series [1] (setting [4]), this molecule returned an AUC(0-inf) of 22.4 ng·h/mL, an AUC(0-t) of 14.6 ng·h/mL and a Cmax of 1.12 ng/mL. In addition, the AUC(0-t) in series [1] (setting [5]) amounted to 23.8 ng·h/mL. In series [1] (setting [6]), this molecule had an AUC(0-t) of 14.6 ng·h/mL and a Cmax of 1.12 ng/mL. Also, in series [1] (setting [7]), the half-life is 61.4 h. Besides, in series [1] (probe drug alone, Day 1), the half-life was 47 h and the Tmax was determined as 1.07 h. Moreover, the T1/2 in series [2] (healthy subjects with normal renal function) is 36 to 48 h. For the same molecule, the “time of peak serum concentrations” value in series [2] (oral administration) is 1 to 3 h.
On to `CC(C)c1nc(N(C)S(C)(=O)=O)nc(-c2ccc(F)cc2)c1/C=C/[C@@H](O)C[C@@H](O)CC(=O)O` [rosuvastatin], for which, in series [1], the “increase of AUCinf on coadministration of capmatinib” value came to 108%; the “increase of AUClast on coadministration of capmatinib” value is listed as 103%; the “increase of Cmax on coadministration of capmatinib” value was 204%; the “AUCinf geo‐mean ratio (90% CI)” value is on record as 2.08 (1.56, 2.76). For the same molecule, in series [1], the “AUClast geo‐mean ratio (90% CI)” value is on record as 2.03 (1.61, 2.56) and the “Cmax geo‐mean ratio (90% CI)” value is recorded as 3.04 (2.36, 3.92). In series [1] (setting [3]), the AUC(0-inf) was determined as 156 ng·h/mL, the AUC(0-t) amounted to 144 ng·h/mL and the Cmax amounted to 23.5 ng/mL. For the same molecule, in series [1] (setting [4]), the AUC(0-inf) was 75.2 ng·h/mL, the AUC(0-t) was found to be 71 ng·h/mL and the Cmax is 7.72 ng/mL. Moreover, in series [1] (setting [5]), the AUC(0-t) was determined as 144 ng·h/mL and the Cmax stood at 23.5 ng/mL. In series [1] (setting [6]), the AUC(0-t) amounted to 71 ng·h/mL and the Cmax came to 7.72 ng/mL. In series [1] (probe drug alone, Day 1), the half-life was 22 h and the time to peak (Tmax) was 2.04 h. In addition, the Tmax in series [1] (setting [7]) was 1.55 h. Also, in series [1] (listed as Rosuvastatin), the “AUCinf geo‐mean ratio (90% CI)” value is 2.08 (1.56–2.76), the “AUClast geo‐mean ratio (90% CI)” value is 2.03 (1.61–2.56) and the “Cmax geo‐mean ratio (90% CI)” value was 3.04 (2.36–3.92).
